In patent US9943506B2, “BCL6 inhibitors as anticancer agents” (Cornell University, priority 2013, dated 2018):
Where two headings read alike, the source gives them in different places.

Columns and labels:
Type in all cases: cell-based
SUDHL6 DLBCL cells = experiment: Growth inhibition of DLBCL cells, SUDHL6; details: Homo sapiens, SU-DHL-6
Method: (§1) 50,000 cells per well were treated for 48 hours with different concentrations of the compounds in 96 well plates, using DMSO as a control. Then, viability was determined with Cell Titer Blue™ (Promega) and growth inhibition was calculated as the percentage of viable cells with respect to cells treated with DMSO alone. GI50 values were determined by dose-response curves.
(§2) 293T cells were grown in Dulbecco's modified Eagles medium supplemented with 10% fetal bovine serum (FBS) (Gemini Bio-Products, Woodland, Calif.) and 1% penicillin-streptomycin. DLBCL cell lines OCI-Ly1, OCI-Ly1-B50, OCI-Ly7, OCI-Ly10 and OCI-Ly19 were grown in 80% Iscove's medium, 20% FBS and penicillin G/streptomycin. DLBCL cell lines Toledo, Farage, SU-DHL4, DOHH-2, SC-1, RCK8, TMD8, HBL-1, Ly3, Karpas 422 and SU-DHL6 were cultured in 90% RPMI medium, 10% FBS, 2 mM glutamine, 10 mM Hepes and penicillin G/streptomycin. All cell lines were cultured at 37° C. in a humidified atmosphere of 5% CO2.

Toledo DLBCL cells = experiment: Growth inhibition of DLBCL cells, Toledo; details: Homo sapiens
Method: as §1, §2

Ly7 DLBCL cells = experiment: Growth inhibition of DLBCL cells, Ly7
Method: as §1, §2

Ly3 DLBCL cells = experiment: Growth inhibition of DLBCL cells, Ly3; details: Table 2; BCL-6 dependent; 48 hours
Method: as §1, §2

Karpas 422 DLBCL cells = experiment: Growth inhibition of DLBCL cells, Karpas 422; details: Homo sapiens, Table 2, BCL-6 independent, 48 hours, read-out: GI50 Karpas 422
Method: as §1, §2

Ly10 DLBCL cells = experiment: Growth inhibition of DLBCL cells, Ly10; details: Table 2, BCL-6 dependent, 48 hours
Method: as §1, §2

Ly1B50 DLBCL cells = experiment: Growth inhibition of DLBCL cells, Ly1B50; details: Table 2; BCL-6 independent; 48 hours
Method: as §1, §2

[1] = Table 10, BCL6 dependent, read-out: GI50 SUDHL6
[2] = Table 2, BCL-6 dependent, 48 hours, read-out: GI50 SUDH6
[3] = 48 h, Table 2, BCL-6 independent
[4] = Table 2, BCL-6 independent, 48 hours
[5] = Table 2, BCL-6 dependent, 48 hours

GI50 (SUDHL6 DLBCL cells; [1]) | GI50 (SUDHL6 DLBCL cells; Table 13, BCL6 dependent, read-out: GI50 SUDHL6) | GI50 (Karpas 422 DLBCL cells) | GI50 (SUDHL6 DLBCL cells; [2]) | SMILES | GI50 (Toledo DLBCL cells; Table 10, BCL6 independent) | GI50 (Ly7 DLBCL cells; Table 10, BCL6 dependent) | GI50 (Toledo DLBCL cells; Table 13, BCL6 independent) | GI50 (Ly7 DLBCL cells; Table 13, BCL6 dependent) | GI50 (Ly3 DLBCL cells) | GI50 (Ly10 DLBCL cells) | GI50 (Ly1B50 DLBCL cells) | GI50 (Toledo DLBCL cells; [3]) | GI50 (Ly7 DLBCL cells; 48 h, Table 2, BCL-6 dependent) | GI50 (Toledo DLBCL cells; [4]) | GI50 (Ly7 DLBCL cells; [5])
> 125 µM |  |  |  | Cc1ccc(COC(=O)Cn2c(=O)oc3cc(Cl)ccc32)cc1 [Compound 333] | > 125 µM | > 125 µM |  |  |  |  |  |  |  |  | 
> 125 µM |  |  |  | Cc1cccc(COC(=O)Cn2c(=O)oc3cc(Cl)ccc32)c1 [Compound 334] | > 125 µM | > 125 µM |  |  |  |  |  |  |  |  | 
> 125 µM |  |  |  | O=C(Cn1c(=O)oc2cc(Cl)ccc21)OCc1ccc(C(F)(F)F)cc1 [Compound 339] | > 125 µM | > 125 µM |  |  |  |  |  |  |  |  | 
> 125 µM |  |  |  | C[C@@H](OC(=O)Cn1c(=O)oc2cc(Cl)ccc21)c1ccccc1 [Compound 341] | > 125 µM | > 125 µM |  |  |  |  |  |  |  |  | 
 | > 125 µM |  |  | COc1ccc2[nH]c(SCc3ccccc3)nc2c1 [Compound 1059] |  |  | > 125 µM | > 125 µM |  |  |  |  |  |  | 
 |  | > 40 µM | > 40 µM | O=C(O)CCN1C(=O)/C(=C2/C(=O)Nc3c(Cl)cc(Cl)cc32)SC1=S [Compound 1093, (Z)-3-(5-(5,7-Dichloro-2-oxoindolin-3-ylidene)-4-oxo-2-thioxothiazolidin-3-yl)propanoic acid] |  |  |  |  | > 40 µM | 21 ± 12 µM | > 40 µM | > 40 µM | 30 ± 9 µM |  | 
 |  | > 40 µM | > 40 µM | Cc1cc(Cl)cc2c1NC(=O)/C2=C1\SC(=S)N(CCC(=O)O)C1=O [Compound 1095, (Z)-3-(5-(5-Chloro-7-methyl-2-oxoindolin-3-ylidene)-4-oxo-2-thioxothiazolidin-3-yl)propanoic acid] |  |  |  |  | > 40 µM | > 40 µM | > 40 µM | > 40 µM | > 40 µM |  | 
 |  | > 40 µM | > 40 µM | Cc1ccc2c(c1)/C(=C1/SC(=S)N(CCC(=O)O)C1=O)C(=O)N2 [Compound 1097, (Z)-3-(5-(5-Methyl-2-oxoindolin-3-ylidene)-4-oxo-2-thioxothiazolidin-3-yl)propanoic acid] |  |  |  |  | > 40 µM | 18 ± 8 µM | > 40 µM | > 40 µM | > 40 µM |  | 
 |  | > 40 µM | > 40 µM | COc1cc(Br)cc2c1NC(=O)/C2=C1\SC(=S)N(CCC(=O)O)C1=O [Compound 1113, (Z)-3-(5-(5-Bromo-7-methoxy-2-oxoindolin-3-ylidene)-4-oxo-2-thioxothiazolidin-3-yl)propanoic acid] |  |  |  |  | > 40 µM | > 40 µM | > 40 µM | > 40 µM | 12 ± 7 µM |  | 
 |  | > 40 µM | 26 ± 7 µM | O=C(O)CCN1C(=O)/C(=C2/C(=O)Nc3ccc(F)cc32)SC1=S [Compound 1115, (Z)-3-(5-(5-Fluoro-2-oxoindolin-3-ylidene)-4-oxo-2-thioxothiazolidin-3-yl)propanoic acid] |  |  |  |  | 22 ± 9 µM | 34 ± 3 µM | > 40 µM | > 40 µM | 24 ± 6 µM |  | 
 |  | > 40 µM | 25 ± 4 µM | O=C(O)CCN1C(=O)/C(=C2/C(=O)Nc3c(F)cccc32)SC1=S [Compound 1117, (Z)-3-(5-(7-Fluoro-2-oxoindolin-3-ylidene)-4-oxo-2-thioxothiazolidin-3-yl)propanoic acid] |  |  |  |  | 21 ± 4 µM | > 40 µM | > 40 µM | > 40 µM | 36 ± 1 µM |  | 
 |  | > 40 µM | > 40 µM | O=C(O)CCN1C(=O)/C(=C2/C(=O)Nc3ccc(Br)cc32)SC1=S [Compound 1165, (Z)-3-(5-(5-Bromo-2-oxoindolin-3-ylidene)-4-oxo-2-thioxothiazolidin-3-yl)propanoic acid] |  |  |  |  | 17 ± 6 µM | 25 ± 9 µM | > 40 µM | > 40 µM | > 40 µM |  | 
 |  | > 40 µM | 29 ± 1 µM | O=C(O)CCN1C(=O)/C(=C2/C(=O)Nc3c(Cl)cccc32)SC1=S [Compound 1167, (Z)-3-(5-(7-Chloro-2-oxoindolin-3-ylidene)-4-oxo-2-thioxothiazolidin-3-yl)propanoic acid] |  |  |  |  | > 40 µM | 24 ± 2 µM | > 40 µM | > 40 µM | 22 ± 1 µM |  | 
 |  | 27 ± 8 µM | 30 ± 3 µM | O=C(O)CCN1C(=O)/C(=C2/C(=O)Nc3ccc([N+](=O)[O-])cc32)SC1=S [Compound 1169, (Z)-3-(5-(5-Nitro-2-oxoindolin-3-ylidene)-4-oxo-2-thioxothiazolidin-3-yl)propanoic acid] |  |  |  |  | 29 ± 5 µM | 20 ± 10 µM | > 40 µM | > 40 µM | 28 ± 7 µM |  | 
 |  | > 40 µM | > 40 µM | O=C(O)CCN1C(=O)/C(=C2/C(=O)Nc3ccccc32)SC1=S [Compound 2001, (Z)-3-(4-Oxo-5-(2-oxoindolin-3-ylidene)-2-thioxothiazolidin-3-yl)propanoic acid] |  |  |  |  | > 40 µM | > 40 µM | > 40 µM | > 40 µM | > 40 µM |  | 
 |  | > 6 µM | > 6 µM | CCOC(=O)CCN1C(=O)/C(=C2/C(=O)Nc3ccc(Cl)cc32)SC1=S [Compound 2003, (Z)-Ethyl 3-(5-(5-chloro-2-oxoindolin-3-ylidene)-4-oxo-2-thioxothiazolidin-3-yl)propanoate] |  |  |  |  | > 6 µM | > 6 µM | > 6 µM | > 6 µM | > 6 µM |  | 
 |  | > 40 µM | 25 ± 6 µM | O=C(O)CCN1C(=O)/C(=C2/C(=O)Nc3ccc(I)cc32)SC1=S [Compound 2005, (Z)-3-(5-(5-Iodo-2-oxoindolin-3-ylidene)-4-oxo-2-thioxothiazolidin-3-yl)propanoic acid] |  |  |  |  | > 40 µM | 21 ± 2 µM | > 40 µM | > 40 µM | > 40 µM |  | 
 |  | > 40 µM | > 40 µM | O=C(O)CN1C(=O)/C(=C2/C(=O)Nc3ccc(Cl)cc32)SC1=S [Compound 2031, (Z)-2-(5-(5-Chloro-2-oxoindolin-3-ylidene)-4-oxo-2-thioxothiazolidin-3-yl)acetic acid] |  |  |  |  | > 40 µM | > 40 µM | > 40 µM | > 40 µM | > 40 µM |  | 
 |  | > 40 µM | > 40 µM | O=C(O)CN1C(=O)/C(=C2/C(=O)Nc3ccc(F)cc32)SC1=S [Compound 2033, (Z)-2-(5-(5-Fluoro-2-oxoindolin-3-ylidene)-4-oxo-2-thioxothiazolidin-3-yl)acetic acid] |  |  |  |  | > 40 µM | > 40 µM | > 40 µM | > 40 µM | > 40 µM |  | 
 |  | > 40 µM | > 40 µM | O=C(O)CN1C(=O)/C(=C2/C(=O)Nc3c(F)cccc32)SC1=S [Compound 2035, (Z)-2-(5-(7-Fluoro-2-oxoindolin-3-ylidene)-4-oxo-2-thioxothiazolidin-3-yl)acetic acid] |  |  |  |  | > 40 µM | > 40 µM | > 40 µM | > 40 µM | > 40 µM |  | 
 |  | > 40 µM | > 40 µM | O=C(O)CN1C(=O)/C(=C2/C(=O)Nc3c(Cl)cccc32)SC1=S [Compound 2037, (Z)-2-(5-(7-Chloro-2-oxoindolin-3-ylidene)-4-oxo-2-thioxothiazolidin-3-yl)acetic acid] |  |  |  |  | > 40 µM | > 40 µM | > 40 µM | > 40 µM | > 40 µM |  | 

SMILES | GI50 (SUDHL6 DLBCL cells; [1]) | GI50 (SUDHL6 DLBCL cells; Table 13, BCL6 dependent, read-out: GI50 SUDHL6) | GI50 (Karpas 422 DLBCL cells) | GI50 (SUDHL6 DLBCL cells; [2]) | GI50 (Toledo DLBCL cells; Table 10, BCL6 independent) | GI50 (Ly7 DLBCL cells; Table 10, BCL6 dependent) | GI50 (Toledo DLBCL cells; Table 13, BCL6 independent) | GI50 (Ly7 DLBCL cells; Table 13, BCL6 dependent) | GI50 (Ly3 DLBCL cells) | GI50 (Ly10 DLBCL cells) | GI50 (Ly1B50 DLBCL cells) | GI50 (Toledo DLBCL cells; [3]) | GI50 (Ly7 DLBCL cells; 48 h, Table 2, BCL-6 dependent) | GI50 (Toledo DLBCL cells; [4]) | GI50 (Ly7 DLBCL cells; [5])
O=C(O)CCN1C(=O)C(C2(O)C(=O)Nc3ccc(F)cc32)SC1=S (centres unmarked) [Compound 2021] |  |  | > 40 µM | > 40 µM |  |  |  |  | > 40 µM | > 40 µM | > 40 µM |  |  | > 40 µM | > 40 µM
O=C(O)CCN1C(=O)SC(C2(O)C(=O)Nc3ccc(Cl)cc32)C1=O (centres unmarked) [Compound 2023] |  |  | > 40 µM | 21 ± 3 µM |  |  |  |  | > 40 µM | > 40 µM | > 40 µM |  |  | > 40 µM | 21 ± 10 µM
O=C(O)CCN1C(=O)C(C2(O)C(=O)Nc3ccc(Br)cc32)SC1=S (centres unmarked) [Compound 2025] |  |  | 22 ± 7 µM | 14 ± 2 µM |  |  |  |  | > 40 µM | 15 ± 8 µM | > 40 µM |  |  | > 40 µM | 13 ± 1 µM
O=C(O)CCN1C(=O)SC(C2(O)C(=O)Nc3ccc(I)cc32)C1=O (centres unmarked) [Compound 2027] |  |  | > 40 µM | 7 ± 1 µM |  |  |  |  | 14 ± 3 µM | 6 ± 2 µM | > 40 µM |  |  | > 40 µM | 8 ± 1 µM
